According to patent publication US12486253B2, “Therapeutics for the degradation of mutant BRAF” (C4 THERAPEUTICS, INC., priority 2021, dated 2025):
Like-named read-outs stand apart in the source and are kept apart here.

Target: BRAF V600E (Homo sapiens, UniProt P15056, V600E)
Assay: HiBiT cellular BRAF^V600E degradation assay
Format: cell-based
Conditions: for DC50: concentration at which 50% of total cellular BRAF^V600E is degraded; for Emax: read-out: HiBit 24 h Emax
[1] = A375.10 cells, 24 h, residual protein remaining in the cell

Sequence of BRAF V600E (P15056 whole entry V600E): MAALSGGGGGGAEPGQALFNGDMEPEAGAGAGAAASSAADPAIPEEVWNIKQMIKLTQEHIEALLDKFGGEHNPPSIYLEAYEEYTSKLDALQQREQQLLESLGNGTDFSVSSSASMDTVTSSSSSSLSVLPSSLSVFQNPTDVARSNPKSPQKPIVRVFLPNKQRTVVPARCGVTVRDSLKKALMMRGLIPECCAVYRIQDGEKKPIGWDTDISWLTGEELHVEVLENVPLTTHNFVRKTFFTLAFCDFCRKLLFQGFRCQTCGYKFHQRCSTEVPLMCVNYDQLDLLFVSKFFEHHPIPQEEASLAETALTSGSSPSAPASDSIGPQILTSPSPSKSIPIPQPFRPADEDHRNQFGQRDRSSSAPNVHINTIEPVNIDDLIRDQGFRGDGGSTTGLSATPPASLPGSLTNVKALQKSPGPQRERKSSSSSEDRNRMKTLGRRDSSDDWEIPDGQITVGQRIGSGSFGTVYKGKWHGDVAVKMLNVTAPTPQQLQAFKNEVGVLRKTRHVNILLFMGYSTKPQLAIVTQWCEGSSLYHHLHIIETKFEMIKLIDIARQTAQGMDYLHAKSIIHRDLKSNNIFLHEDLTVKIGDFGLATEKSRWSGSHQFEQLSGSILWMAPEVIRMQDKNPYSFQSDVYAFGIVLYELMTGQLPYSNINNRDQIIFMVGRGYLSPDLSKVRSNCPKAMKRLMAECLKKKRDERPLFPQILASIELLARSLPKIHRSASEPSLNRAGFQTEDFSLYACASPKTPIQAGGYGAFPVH

SMILES | DC50 (A375.10 cells, 24 h) | Emax [1] | Emax
CCN(C)S(=O)(=O)Nc1ccc(F)c(Oc2ccc3ncn([C@H]4COC5(CCN(C(=O)CN6CCC(c7ccc(NC8CCC(=O)NC8=O)cc7F)CC6)CC5)C4)c(=O)c3c2)c1C#N (single isomer, unassigned) [Example 34] | 29.9 nM | 10.8% | 
CCN(C)S(=O)(=O)Nc1ccc(F)c(Oc2ccc3ncn(-c4cnc(N5CCN(C(=O)CN6CCC(c7ccc(N[C@@H]8CCC(=O)NC8=O)cc7F)CC6)CC5)nc4)c(=O)c3c2)c1F [Example 139, 3-[2-[4-[2-[4-[4-[[(3R)-2,6-dioxopiperidin-3-yl]amino]-2-fluorophenyl]piperidin-1-yl]acetyl]piperazin-1-yl]pyrimidin-5-yl]-6-[3-[[ethyl(methyl)sulfamoyl]amino]-2,6-difluorophenoxy]-4-oxoquinazoline] | 41.2 nM | 13.2% | 
Cn1nc(C2CCC(=O)NC2=O)c2ccc(C3CCN(CC(=O)N4CCC5(CC4)C[C@@H](n4cnc6ccc(Oc7c(F)ccc(NS(=O)(=O)N8CC[C@@H](F)C8)c7C#N)cc6c4=O)CO5)CC3)cc21 (stereo partly drawn) [Example 165, (3R)—N-[2-cyano-3-[3-[(3R)-8-[2-[4-[3-(2,6-dioxopiperidin-3-yl)-1-methylindazol-6-yl]piperidin-1-yl]acetyl]-1-oxa-8-azaspiro[4.5]decan-3-yl]-4-oxoquinazolin-6-yl]oxy-4-fluorophenyl]-3-fluoropyrrolidine-1-sulfonamide] | 100 nM | 17.8% | 
CCN(C)S(=O)(=O)Nc1ccc(F)c(Oc2ccc3ncn(CCC4CCN(C(=O)CN5CCC(c6ccc(NC7CCC(=O)NC7=O)cc6)CC5)CC4)c(=O)c3c2)c1C#N (centres unmarked) [Example A1, 6-[2-cyano-3-[[ethyl(methyl)sulfamoyl]amino]-6-fluoro-phenoxy]-3-[2-[1-[2-[4-[4-[(2,6-dioxo-3-piperidyl)amino]phenyl]-1-piperidyl]acetyl]-4-piperidyl]ethyl]-4-oxo-quinazoline] | 78 nM | 23% | 
N#Cc1c(NS(=O)(=O)C2CCCC2)ccc(F)c1Oc1ccc2ncn([C@H]3COC4(CCN(C(=O)CN5CCC(c6ccc(NC7CCC(=O)NC7=O)cc6F)CC5)CC4)C3)c(=O)c2c1 (stereo partly drawn) [Example 56, N-[2-cyano-3-[3-[(3R)-8-[2-[4-[4-[(2,6-dioxopiperidin-3-yl)amino]-2-fluorophenyl]piperidin-1-yl]acetyl]-1-oxa-8-azaspiro[4.5]decan-3-yl]-4-oxoquinazolin-6-yl]oxy-4-fluorophenyl]cyclopentanesulfonamide] | 31.6 nM | 11.6% | 
CCN(C)S(=O)(=O)Nc1ccc(F)c(Oc2ccc3ncn([C@H]4COC5(CCN(C(=O)CN6CCC(c7ccc(C8CCC(=O)NC8=O)cc7F)CC6)CC5)C4)c(=O)c3c2)c1C#N (stereo partly drawn) [Example 46, (3R)-3-[6-[2-cyano-3-[[ethyl(methyl)sulfamoyl]amino]-6-fluorophenoxy]-4-oxoquinazolin-3-yl]-8-[2-[4-[4-(2,6-dioxopiperidin-3-yl)-2-fluorophenyl]piperidin-1-yl]acetyl]-1-oxa-8-azaspiro[4.5]decane] | 29.9 nM | 13.4% | 
CCN(C)S(=O)(=O)Nc1ccc(F)c(Oc2ccc3ncn([C@H]4COC5(CCN(C(=O)CN6CCN(c7ccc(C8CCC(=O)NC8=O)cc7F)CC6)CC5)C4)c(=O)c3c2)c1C#N (stereo partly drawn) [Example 60, (3R)-3-[6-[2-cyano-3-[[ethyl(methyl)sulfamoyl]amino]-6-fluorophenoxy]-4-oxoquinazolin-3-yl]-8-[2-[4-[4-(2,6-dioxopiperidin-3-yl)-2-fluorophenyl]piperazin-1-yl]acetyl]-1-oxa-8-azaspiro[4.5]decane] | 40.5 nM | 13% | 
CO[C@H]1CCN(S(=O)(=O)Nc2ccc(F)c(Oc3ccc4ncn(-c5cnc(N6CCN(C(=O)CN7CCC(c8ccc(N[C@@H]9CCC(=O)NC9=O)cc8F)CC7)CC6)nc5)c(=O)c4c3)c2C#N)C1 [Example 110, (3S)—N-[2-cyano-3-[3-[2-[4-[2-[4-[4-[[(3R)-2,6-dioxopiperidin-3-yl]amino]-2-fluorophenyl]piperidin-1-yl]acetyl]piperazin-1-yl]pyrimidin-5-yl]-4-oxoquinazolin-6-yl]oxy-4-fluorophenyl]-3-methoxypyrrolidine-1-sulfonamide] | 42.5 nM | 8.22% | 
CN(CC(F)F)S(=O)(=O)Nc1ccc(F)c(Oc2ccc3ncn(-c4cnc(N5CCN(C(=O)CN6CCC(c7ccc(N[C@@H]8CCC(=O)NC8=O)cc7F)CC6)CC5)nc4)c(=O)c3c2)c1C#N [Example 119, 6-[2-cyano-3-[[2,2-difluoroethyl(methyl)sulfamoyl]amino]-6-fluorophenoxy]-3-[2-[4-[2-[4-[4-[[(3R)-2,6-dioxopiperidin-3-yl]amino]-2-fluorophenyl]piperidin-1-yl]acetyl]piperazin-1-yl]pyrimidin-5-yl]-4-oxoquinazoline] | 46.9 nM | 12.8% | 
CCN(C)S(=O)(=O)Nc1ccc(F)c(Oc2ccc3ncn([C@H]4CCC5(CCN(C(=O)CN6CCN(c7ccc(NC8CCC(=O)NC8=O)cc7F)CC6)CC5)C4)c(=O)c3c2)c1C#N (stereo partly drawn) [Example 48, 6-[2-cyano-3-[[ethyl(methyl)sulfamoyl]amino]-6-fluorophenoxy]-3-[(3S)-8-[2-[4-[4-[(2,6-dioxopiperidin-3-yl)amino]-2-fluorophenyl]piperazin-1-yl]acetyl]-8-azaspiro[4.5]decan-3-yl]-4-oxoquinazoline] | 34.5 nM | 15.6% | 
CCN(C)S(=O)(=O)Nc1ccc(F)c(Oc2ccc3ncn(-c4cnc(N5CCN(C(=O)CN6CCC(c7ccc(N[C@@H]8CCC(=O)NC8=O)cc7F)CC6)CC5)nc4)c(=O)c3c2OC)c1C#N [Example 99, 6-[2-cyano-3-[[ethyl(methyl)sulfamoyl]amino]-6-fluorophenoxy]-3-[2-[4-[2-[4-[4-[[(3R)-2,6-dioxopiperidin-3-yl]amino]-2-fluorophenyl]piperidin-1-yl]acetyl]piperazin-1-yl]pyrimidin-5-yl]-5-methoxy-4-oxoquinazoline] | 34.2 nM | 11.4% | 
CCN(C)S(=O)(=O)Nc1ccc(F)c(Oc2ccc3ncn([C@H]4CCC5(CCN(C(=O)CC6(O)CCN(c7ccc8c(N9CCC(=O)NC9=O)nn(C)c8c7F)CC6)CC5)C4)c(=O)c3c2)c1C#N [Example 172, 6-[2-cyano-3-[[ethyl(methyl)sulfamoyl]amino]-6-fluorophenoxy]-3-[(3S)-8-[2-[1-[3-(2,4-dioxo-1,3-diazinan-1-yl)-7-fluoro-1-methylindazol-6-yl]-4-hydroxypiperidin-4-yl]acetyl]-8-azaspiro[4.5]decan-3-yl]-4-oxoquinazoline] | 28.9 nM | 25.1% | 
CCN(C)S(=O)(=O)Nc1ccc(F)c(Oc2ccc3ncn(-c4cnc(N5CCN(C(=O)CN6CCC(c7ccc(N[C@H]8CCC(=O)NC8=O)cc7F)CC6)CC5)nc4)c(=O)c3c2)c1C#N [Example 92, 6-[2-cyano-3-[[ethyl(methyl)sulfamoyl]amino]-6-fluorophenoxy]-3-[2-[4-[2-[4-[4-[[(3S)-2,6-dioxopiperidin-3-yl]amino]-2-fluorophenyl]piperidin-1-yl]acetyl]piperazin-1-yl]pyrimidin-5-yl]-4-oxoquinazoline] | 8.71 nM |  | 7.37%

Further lines, with some results ahead:

DC50 (A375.10 cells, 24 h) | Emax [1] | SMILES | Emax
14.6 nM | 7.8% | CN(CCF)S(=O)(=O)Nc1ccc(F)c(Oc2ccc3ncn(-c4cnc(N5CCN(C(=O)CN6CCC(c7ccc(N[C@H]8CCC(=O)NC8=O)cc7F)CC6)CC5)nc4)c(=O)c3c2)c1C#N [Example 121, 6-[2-cyano-6-fluoro-3-[[2-fluoroethyl(methyl)sulfamoyl]amino]phenoxy]-3-[2-[4-[2-[4-[4-[[(3S)-2,6-dioxopiperidin-3-yl]amino]-2-fluorophenyl]piperidin-1-yl]acetyl]piperazin-1-yl]pyrimidin-5-yl]-4-oxoquinazoline] | 
10.6 nM | 15% | CCN(C)S(=O)(=O)Nc1ccc(F)c(Oc2ccc3ncn(CCCC4CCN(C(=O)CN5CCC(c6ccc7c(C8CCC(=O)NC8=O)nn(C)c7c6)CC5)CC4)c(=O)c3c2)c1C#N (centres unmarked) [Example 145, 6-[2-cyano-3-[[ethyl(methyl)sulfamoyl]amino]-6-fluorophenoxy]-3-[3-[1-[2-[4-[3-(2,6-dioxopiperidin-3-yl)-1-methylindazol-6-yl]piperidin-1-yl]acetyl]piperidin-4-yl]propyl]-4-oxoquinazoline] | 
18.6 nM | 10.3% | CO[C@H]1CCN(S(=O)(=O)Nc2ccc(F)c(Oc3ccc4ncn(-c5cnc(N6CCN(C(=O)CN7CCC(c8ccc(N[C@H]9CCC(=O)NC9=O)cc8F)CC7)CC6)nc5)c(=O)c4c3)c2C#N)C1 [Example 111, (3S)—N-[2-cyano-3-[3-[2-[4-[2-[4-[4-[[(3S)-2,6-dioxopiperidin-3-yl]amino]-2-fluorophenyl]piperidin-1-yl]acetyl]piperazin-1-yl]pyrimidin-5-yl]-4-oxoquinazolin-6-yl]oxy-4-fluorophenyl]-3-methoxypyrrolidine-1-sulfonamide] | 
5.77 nM | 18.5% | CCN(C)S(=O)(=O)Nc1ccc(F)c(Nc2ccc3ncn([C@H]4COC5(CCN(C(=O)CC6(O)CCN(c7cc8c(cc7F)c(N7CCC(=O)NC7=O)nn8C)CC6)CC5)C4)c(=O)c3c2Cl)c1C#N (single isomer, unassigned) [Example 185] | 
23.5 nM | 24.5% | CC(C)S(=O)(=O)Nc1ccc(F)c(Oc2ccc3ncn([C@H]4COC5(CCN(C(=O)CC6(O)CCN(c7cc8c(cc7F)c(N7CCC(=O)NC7=O)nn8C)CC6)CC5)C4)c(=O)c3c2)c1C#N [Example 189, N-[2-cyano-3-[3-[(3R)-8-[2-[1-[3-(2,4-dioxo-1,3-diazinan-1-yl)-5-fluoro-1-methylindazol-6-yl]-4-hydroxypiperidin-4-yl]acetyl]-1-oxa-8-azaspiro[4.5]decan-3-yl]-4-oxoquinazolin-6-yl]oxy-4-fluorophenyl]propane-2-sulfonamide] | 
26.9 nM | 9.49% | CCN(C)S(=O)(=O)Nc1ccc(F)c(Oc2ccc3ncn(C4CC5(CCN(C(=O)CN6CCC(c7ccc8c(N9CCC(=O)NC9=O)nn(C)c8c7)CC6)CC5)C4)c(=O)c3c2)c1C#N [Example 147, 6-[2-cyano-3-[[ethyl(methyl)sulfamoyl]amino]-6-fluorophenoxy]-3-[7-[2-[4-[3-(2,4-dioxo-1,3-diazinan-1-yl)-1-methylindazol-6-yl]piperidin-1-yl]acetyl]-7-azaspiro[3.5]nonan-2-yl]-4-oxoquinazoline] | 
